Experimental data: the supplement of paper PMC10307832

Tests used:
Test in all cases: relative viability (nuclei count vs DMSO), 5 days (fraction); higher = more cells survive
Metformin + Pemetrexed = compound: CN(C)C(=N)NC(=N)N [Metformin] + Nc1nc2[nH]cc(CCc3ccc(C(=O)N[C@@H](CCC(=O)O)C(=O)O)cc3)c2c(=O)[nH]1 [Pemetrexed] (partner 0.2 µM)
Procedure, shortened: (§1)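 Lung cancer cell lines in 1536-well plates were dosed by pin tool the day after seeding, either with one drug alone or with a fixed anchor-drug dose plus five library-drug doses (not always all listed) in √10 steps. After 5 days, cells were fixed and their nuclei stained in one step (final 0.05% Triton X-100, 1% formaldehyde, 1 ug/ml Hoechst), then counted on 4× images. Relative viability is the nuclei count in treated wells divided by that in vehicle wells. Values are medians of duplicate plates.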

Apatinib + OSI-027 = compound: N#CC1(c2ccc(NC(=O)c3cccnc3NCc3ccncc3)cc2)CCCC1 [Apatinib] + COc1cccc2cc(-c3nc([C@H]4CC[C@H](C(=O)O)CC4)n4ncnc(N)c34)[nH]c12 [OSI-027] (partner 0.5 µM)
Procedure, shortened: as §1

Apatinib + Decitabine = compound: N#CC1(c2ccc(NC(=O)c3cccnc3NCc3ccncc3)cc2)CCCC1 [Apatinib] + Nc1ncn([C@H]2C[C@H](O)[C@@H](CO)O2)c(=O)n1 [Decitabine] (partner 2 µM)
Procedure, shortened: as §1

Apatinib + Olaparib = compound: N#CC1(c2ccc(NC(=O)c3cccnc3NCc3ccncc3)cc2)CCCC1 [Apatinib] + O=C(c1cc(Cc2n[nH]c(=O)c3ccccc23)ccc1F)N1CCN(C(=O)C2CC2)CC1 [Olaparib] (partner 8 µM)
Procedure, shortened: as §1

Row | Cell Line | relative viability (Metformin + Pemetrexed; first compound 10 µM) | relative viability (Metformin + Pemetrexed; first compound 31.62 µM) | relative viability (Metformin + Pemetrexed; first compound 316.23 µM) | relative viability (Metformin + Pemetrexed; first compound 1000 µM) | relative viability (Apatinib + OSI-027; first compound 0.08 µM) | relative viability (Apatinib + OSI-027; first compound 0.253 µM) | relative viability (Apatinib + OSI-027; first compound 0.8 µM) | relative viability (Apatinib + OSI-027; first compound 2.53 µM) | relative viability (Apatinib + OSI-027; first compound 8 µM) | relative viability (Apatinib + Decitabine; first compound 0.253 µM) | relative viability (Apatinib + Decitabine; first compound 0.8 µM) | relative viability (Apatinib + Decitabine; first compound 2.53 µM) | relative viability (Apatinib + Decitabine; first compound 8 µM) | relative viability (Apatinib + Olaparib; first compound 0.253 µM) | relative viability (Apatinib + Olaparib; first compound 0.8 µM) | relative viability (Apatinib + Olaparib; first compound 2.53 µM) | relative viability (Apatinib + Olaparib; first compound 8 µM) | relative viability (Metformin + Pemetrexed; first compound 100 µM) | relative viability (Apatinib + Decitabine; first compound 0.08 µM) | relative viability (Apatinib + Olaparib; first compound 0.08 µM)
1 | PC-3 [JPC-3] | 1.12 | 1.08 | 0.897 | 0.705 | 0.747 | 0.639 | 0.627 | 0.517 | 0.571 | 0.869 | 0.763 | 0.908 | 1.04 | 1.12 | 0.983 | 1.1 | 1.06 | – | – | –
2 | NCI-H661 | 0.9 | 0.934 | 0.858 | 0.879 | 0.678 | 0.603 | 0.693 | 0.705 | 0.603 | 0.543 | 0.542 | 0.581 | 0.599 | 0.726 | 0.724 | 0.687 | 0.641 | 0.877 | 0.615 | 0.719
3 | NCI-H441 | – | 0.255 | 0.266 | 0.264 | 0.609 | 0.625 | 0.541 | 0.436 | 0.339 | 0.233 | 0.248 | 0.285 | 0.444 | 0.612 | 0.505 | 0.561 | 0.367 | 0.292 | 0.229 | 0.684
4 | LCLC-97TM1 | – | 0.198 | 0.171 | 0.188 | 0.516 | 0.427 | 0.456 | 0.395 | 0.329 | 0.244 | 0.237 | 0.185 | 0.228 | 0.541 | 0.353 | 0.351 | 0.172 | 0.198 | 0.268 | 0.524
5 | NCI-H1648 | – | 0.664 | 0.67 | 0.713 | 0.272 | 0.253 | 0.265 | 0.267 | 0.261 | 0.502 | 0.479 | 0.428 | 0.508 | 0.854 | 0.761 | 0.501 | 0.433 | 0.876 | 0.66 | 0.934
6 | RERF-LC-KJ | 0.491 | 0.447 | 0.426 | 0.455 | 0.554 | 0.592 | 0.533 | 0.51 | 0.497 | 0.7 | 0.637 | 0.66 | 0.746 | 0.801 | 0.903 | 0.782 | 0.715 | 0.504 | 0.755 | 0.919
7 | NCI-H2170 | 0.238 | 0.281 | 0.266 | 0.267 | 0.803 | 0.752 | 0.692 | 0.594 | 0.674 | 0.494 | 0.461 | 0.518 | 0.508 | 0.623 | 0.638 | 0.49 | 0.485 | 0.264 | 0.476 | 0.617
8 | NCI-H1793 | 1.16 | 0.826 | 0.874 | 1.22 | 0.282 | 0.25 | 0.268 | 0.222 | 0.175 | 0.535 | 0.516 | 0.541 | 0.564 | 0.897 | 0.813 | 0.798 | 0.555 | 1.23 | 0.555 | 0.959
9 | NCI-H2405 | – | 1.16 | 0.619 | 0.679 | 0.621 | 0.579 | 0.714 | 0.604 | 0.626 | 0.854 | 0.711 | 0.712 | 0.776 | 0.883 | 0.837 | 0.821 | 0.752 | 1.04 | 0.83 | 0.916
10 | NCI-H1792 | 0.968 | 0.862 | 0.697 | 0.903 | 0.778 | 0.659 | 0.693 | 0.475 | 0.439 | 0.55 | 0.544 | 0.591 | 0.609 | 0.588 | 0.341 | 0.224 | 0.216 | 0.952 | 0.596 | 0.416
11 | UMC-11 | 0.907 | 0.697 | 0.791 | 0.855 | 0.574 | 0.437 | 0.479 | 0.464 | 0.312 | 0.64 | 0.575 | 0.714 | 0.629 | 0.411 | 0.397 | 0.328 | 0.365 | 0.81 | 0.711 | 1.14
12 | NCI-H650 | 0.846 | 0.993 | 0.941 | 1.1 | 0.493 | 0.491 | 0.446 | 0.381 | 0.388 | 0.331 | 0.332 | 0.418 | 0.626 | 0.458 | 0.439 | 0.365 | 0.334 | 0.878 | 0.35 | 0.35
13 | NCI-H838 | 0.28 | 0.266 | 0.266 | 0.271 | 0.456 | 0.393 | 0.361 | 0.357 | 0.422 | 0.48 | 0.493 | 0.442 | 0.469 | 0.831 | 0.762 | 0.69 | 0.696 | 0.278 | 0.489 | 0.853
14 | SK-LU-1 | 0.853 | 0.956 | 0.892 | 0.905 | 0.326 | 0.395 | 0.298 | 0.303 | 0.246 | 0.782 | 0.671 | 0.667 | 0.675 | 0.453 | 0.435 | 0.549 | 0.436 | 0.97 | 0.724 | 0.503
15 | SW 1573 | 0.728 | 0.817 | 0.725 | 0.743 | 0.71 | 0.636 | 0.553 | 0.593 | 0.518 | 0.615 | 0.593 | 0.513 | 0.603 | 0.506 | 0.463 | 0.325 | 0.357 | 0.668 | 0.77 | 0.586
16 | LK-2 | 0.319 | 0.292 | 0.237 | 0.306 | 0.217 | 0.197 | 0.157 | 0.205 | 0.167 | 0.298 | 0.273 | 0.21 | 0.273 | 0.581 | 0.64 | 0.63 | 0.515 | 0.255 | 0.299 | 0.903
17 | NCI-H1993 | 0.521 | 0.507 | 0.558 | 0.633 | 0.627 | 0.596 | 0.549 | 0.49 | 0.494 | 0.623 | 0.519 | 0.559 | 0.544 | 1.05 | 1.05 | 0.984 | 1.04 | 0.588 | 0.604 | 0.991
